Structures can show the parent of a compound that is named as a salt. Where two headings read alike, the source gives them in different places.
What was measured:
[1] = system: MCT cells
Protocol: (§4) Reagents, cells, and protocols. Where not otherwise indicated, reagents were purchased from Sigma (Madrid, Spain). A mouse cortical tubule cell line (MCT) was used for the study. Cells were maintained in RPMI 1640 medium (Gibco, Madrid, Spain) supplemented with 10% fetal bovine serum (FBS, Gibco, Madrid, Spain), 500 U/mL penicillin, 50 mg/mL streptomycin (Gibco, Madrid, Spain) and 1 mM L-glutamine. […] During the treatments, cells were photographed under live cell, light microscope (Axiovert 200M, Zeiss; and Nikon Eclipse TS100, Barcelona, Spain) for visual inspection. At the end, cell extracts were obtained in extraction buffer (25 mM PIPES, pH7; 25 mM KCI; 5 mM EGTA; 0,5% NP-40, and a mixture of protease inhibitors consisting of 1 mM phenylsulfonyl fluoride, 1 µg/mL leupeptine, and 1 µg/mL aprotinin). Protein content was determined with a commercial kit (Bio-Rad, Madrid, Spain) based in the Lowry method.

[2] = system: MCT cells; remark: listed apart in the source
Protocol: Where not otherwise indicated, reagents were purchased from Sigma (Madrid, Spain). A mouse cortical tubule cell line (MCT) was used for the study. Cells were maintained in RPMI 1640 medium (Gibco, Madrid, Spain) supplemented with 10% fetal bovine serum (FBS, Gibco, Madrid, Spain), 500 U/mL penicillin, 50 mg/mL streptomycin (Gibco, Madrid, Spain) and 1 mM L-glutamine. […] During the treatments, cells were photographed under live cell, light microscope (Axiovert 200M, Zeiss; and Nikon Eclipse TS100, Barcelona, Spain) for visual inspection.
MTT assay. Viable cell number was comparatively estimated by incubating cell cultures with 0.5 mg/mL 3-[4,5-dimethylthiazol-2-yl]-2,5-diphrnyl tetrazolium bromide (MTT) for 4h. Then, 10% SDS in 0.01 M HCL was added in 1:1 (vol/vol) and left overnight at 37 °C. Finally, absorbance was measured at 570 nm as an index of viable cell number.

[3] = system: MCT cells; remark: listed apart in the source
Protocol: (§5) A mouse cortical tubule cell line (MCT) was used for the study. Cells were maintained in RPMI 1640 medium (Gibco, Madrid, Spain) supplemented with 10% fetal bovine serum (FBS, Gibco, Madrid, Spain), 500 U/mL penicillin, 50 mg/mL streptomycin (Gibco, Madrid, Spain) and 1 mM L-glutamine. […] During the treatments, cells were photographed under live cell, light microscope (Axiovert 200M, Zeiss; and Nikon Eclipse TS100, Barcelona, Spain) for visual inspection. At the end, cell extracts were obtained in extraction buffer (25 mM PIPES, pH7; 25 mM KCI; 5 mM EGTA; 0,5% NP-40, and a mixture of protease inhibitors consisting of 1 mM phenylsulfonyl fluoride, 1 µg/mL leupeptine, and 1 µg/mL aprotinin). Protein content was determined with a commercial kit (Bio-Rad, Madrid, Spain) based in the Lowry method.
(§6) Caspase activity. Twenty micrograms of protein from cell extracts were incubated with 100 µL reaction buffer (50 mM HEPES, pH7.4; 100 mM NaCl; 1 mM EDTA; 0.1% 3-[3-(cholamidopropyl)-dimethylammonio]-1-propane sulfonate; 10% sucrose; and 5 mM DTT) containing 100 µM of the fluorogenic caspase substrate rhodamine 110, bis-(N-CBZ-L-aspartyl-L-glutamyl-L-valyl-L-aspartic acidamide (Z-DEVD)2Rh110; Anaspec, Fremont, CA, USA)) at 37 °C for 30 min in a Fluoroskan Ascent FL fluorometer (Thermo, Rockford, IL, USA), and fluorescence intensity was measured every 3 min at 538 nm, upon excitation at 485 nm. Caspase activity was calculated from the slope of the linear relationship between fluorescence intensity and time.

[4] = system: Male Wistar rats; assay: Rat models of AKI: urinary markers by Western blot; type: in vivo
Source text: (§1) Caspase activity. […] Western blot.
(§2) Rat models of AKI. Male Wistar rats (220-240 g) were housed under controlled experimental conditions and allowed free access to regular chow and water. […] Rats were allocated in metabolic cages to obtain 24-hour, individual urine samples. Blood was drawn with a needle from the tail vein, and plasma was obtained by centrifugation and, at the end of the treatments, kidneys were perfused with heparinized saline and immediately dissected. Half of the kidney was fixed in paraformaldehyde for histological studies, and the rest was frozen at -80 °C for biochemical analysis.

[5] = system: MCT cells; assay: Apoptotic cells / death phenotype by light microscopy; conditions: medium without serum, 18 h, cisplatin 0-30 µM, cycloheximide 50-800 µM
Protocol: as §4

[6] = system: MCT cells; assay: Caspase (DEVDase) activity in cell extracts; type: cell-based, mouse; conditions: cisplatin, 18 h, concentration-dependent
Source text: (§3) Reagents, cells, and protocols.
as §1

[7] = system: Male Wistar rats; assay: Rat models of AKI: renal histopathology; type: in vivo; conditions: hematoxylin and eosin, cisplatin 5 mg/kg i.p., gentamicin 150 mg/kg per day i.p. for 6 days
Source text: as §2
Renal histopathology. Paraformaldehyde-fixed tissue samples were immersed in paraffin, cut into […] slices and stained with hematoxylin and eosin.

[8] = system: MCT cells; assay: Internucleosomal DNA fragmentation; type: cell-based, mouse; conditions: cisplatin, 18 h, concentration-dependent
Protocol: as §3
DNA fragmentation. DNA fragmentation was determined with the commercial kit Cell Death Detection Plus (Roche Diagnostics, Barcelona, Spain) in 10 µg of protein from each cell extract.

[9] = system: MCT cells; assay: Western blot / 2D proteomic analysis of culture medium and cell extracts; conditions: 18 h, cisplatin 0-30 µM, cycloheximide 50-800 µM
Protocol: as §5, §6

[10] = system: MCT cells; assay: RT-qPCR analysis of gene expression; type: cell-based, mouse; conditions: 0-30 µM cisplatin, 18 h, normalized with RPS13
Protocol: as §3
RT-qPCR analysis. Total RNA was isolated using Nucleospin RNAII (Macherey-Nagel, Düren, Germany). First-strand cDNA was generated from 1 µg of total RNA using poly-dT as primer with the M-MLV reverse transcriptase (Promega, Barcelona, Spain). Real-time PCR (qPCR) was performed in triplicate. In a total reaction volume of 20 µL containing 1 µL of cDNA, 0.4 µM of each primer and 1x iQSybrGreen Supermix (Bio-Rad), with initial denaturation at 95 °C for 5 min followed by 40 cycles of 30 sec at 95 °C, and 30 sec at 65 °C, and finally, one cycle of 30 sec at 72 °C. Threshold cycle (Ct) values were obtained. The sequences of TCP1-eta used were: sense 5'-[…]-3' (SEQ ID NO: 1); anti-sense 5'-[…]-3' (SEQ ID NO: 2); and RPS13: sense 5'-[…]-3' (SEQ ID NO: 3); anti-sense 5'-[…]-3' (SEQ ID NO: 4). Standard curves were run for each transcript to assure exponential amplification and to rule out non-specific amplification. Changes in the expression level were calculated following normalization with RPS13. The reactions were run on an iQ5 Real-Time PCR detection system (Bio-Rad, Madrid, Spain).

[11] = system: Male Wistar rats; assay: Rat models of AKI: renal function (plasma creatinine); type: in vivo; conditions: cisplatin single i.p. 5 mg/kg, gentamicin i.p. 150 mg/kg per day for 6 days
Protocol: Renal function. Renal function was monitored by means of plasma creatinine and urea and urinary protein concentration, which were determined with commercial colorimetric kits (Quantichrom Creatinine and Quantichrom Urea Assay Kits, BioAssay Systems, Hayward, CA, USA), according to the manufacturer's instructions.

[12] = rats, cisplatin single i.p. 5 mg/kg, gentamicin i.p. 150 mg/kg per day for 6 days, Western blot

## C[C@@H]1C[C@@H]([C@H](O)CC2CC(=O)NC(=O)C2)C(=O)[C@@H](C)C1 [Cycloheximide, cycloheximide]
[1]
  number of apoptotic cells / apoptotic phenotype: induces apoptosis
[2]
  cell viability: reduces cell viability
[3]
  TCP1-eta in the culture medium: increases TCP1-eta secretion to the culture medium
  executioner caspase 3 (active caspase 3, p19 fragment): executioner caspase 3 activation

## N.N.[Cl][Pt][Cl] [cisplatin]
[4]; [12]
  urinary NGAL: significantly increases
  urinary TCP1-eta: significantly increases
[5]
  number of apoptotic cells / apoptotic phenotype: increased the number of apoptotic cells
[6]
  caspase (DEVDase) activity: increased
[7]
  pattern of renal damage (region affected): both the cortex and the outer medulla
[8]
  internucleosomal DNA fragmentation: increased
[9]
  TCP1-eta in the culture medium: increased with increasing concentrations of cisplatin
[10]
  TCP1-eta gene expression: progressive TCP1-eta gene induction with increasing concentrations of the drug

## O=C(O)/C=C\C(=O)O [sodium maleate]
[4]; normal rats, single i.v. injection of sodium maleate 400 mg/kg
  urinary TCP1-eta: TCP1-eta is excreted with the urine

## gentamicin
[4]; [12]
  urinary NGAL: significantly increases
  urinary TCP1-eta: significantly increases
[7]
  pattern of renal damage (region affected): mostly the cortex and, to a lesser extent, the medulla
[11]
  Plasma creatinine: significantly increases

From patent EP3736570A1, “METHOD FOR THE DIAGNOSIS, SUB-CLASSIFICATION AND PROGNOSIS OF ACUTE KIDNEY INJURY BY DETECTING CCT7” (Fundación Instituto de Estudios de Ciencias de la Salud de …, priority 2019, dated 2020)
